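Tested at 5 concentrations; 48 h exposure; 96-well plates; endpoints linearly interpolated, else capped at highest concentration. The concentration for 50% growth inhibition is given as GI50.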 Calls of active or inactive are those of the source. Rule as the data show it: active = GI50 up to about 1.1 µM and inactive = higher.
Experiments:
Experiment in all cases: NCI tumour cell line growth inhibition, 48 h
A498 = test system: A498
A549 = test system: A549
CAKI-1 = test system: CAKI-1
COLO 205 = test system: COLO 205
EKVX = test system: EKVX
HCT-116 = test system: HCT-116
K562 = test system: K562
LOX IMVI = test system: LOX IMVI
Malme-3M = test system: Malme-3M
NCI-H23 = test system: NCI-H23
NCI-H460 = test system: NCI-H460
NCI/ADR-RES = test system: NCI/ADR-RES
OVCAR-4 = test system: OVCAR-4
SK-OV-3 = test system: SK-OV-3
SR = test system: SR
U-251 = test system: U-251
UO-31 = test system: UO-31
HOP-92 = test system: HOP-92

Compound	GI50 (A498)	GI50 (A549)	GI50 (CAKI-1)	GI50 (COLO 205)	GI50 (EKVX)	GI50 (HCT-116)	GI50 (K562)	GI50 (LOX IMVI)	GI50 (Malme-3M)	GI50 (NCI-H23)	GI50 (NCI-H460)	GI50 (NCI/ADR-RES)	GI50 (OVCAR-4)	GI50 (SK-OV-3)	GI50 (SR)	GI50 (U-251)	GI50 (UO-31)	GI50 (HOP-92)
O=C(Nc1ccc(Cl)cc1)Oc1ccc(C(=S)Nc2ccc(Br)cc2)cc1	19.1 µM (inactive)	10 µM (inactive)	7.78 µM (inactive)	9.75 µM (inactive)	2.49 µM (inactive)	10.3 µM (inactive)	2.36 µM (inactive)	0.334 µM (active)	20.2 µM (inactive)	27.7 µM (inactive)	4.85 µM (inactive)	9.53 µM (inactive)	7.4 µM (inactive)	26.5 µM (inactive)	5.06 µM (inactive)	20.5 µM (inactive)	18.2 µM (inactive)	
CC1=CC(=O)C(C(O)(C(F)(F)F)C(F)(F)F)C(C)(C)C1 (centres undefined)	> 10 µM (inactive)	> 10 µM (inactive)	> 10 µM (inactive)	> 10 µM (inactive)	> 10 µM (inactive)	> 10 µM (inactive)	> 10 µM (inactive)	> 10 µM (inactive)	> 10 µM (inactive)	> 10 µM (inactive)	> 10 µM (inactive)	> 10 µM (inactive)	> 10 µM (inactive)	> 10 µM (inactive)	> 10 µM (inactive)	> 10 µM (inactive)	> 10 µM (inactive)	
COC(=O)c1ccccc1CC1Cc2ccc3c(c2C1=O)CCCC3 (centres undefined)	52.8 µM (inactive)	34.3 µM (inactive)	24 µM (inactive)	34 µM (inactive)	29.9 µM (inactive)	29.2 µM (inactive)	17 µM (inactive)	28.8 µM (inactive)	28.1 µM (inactive)	35.3 µM (inactive)	68.5 µM (inactive)	23.6 µM (inactive)	23.3 µM (inactive)	> 95.9 µM (inactive)	14 µM (inactive)	50.6 µM (inactive)	52.8 µM (inactive)	
Nc1ccc(CCN2CCN(CCCc3ccccc3)CC2)cc1	> 100 µM (inactive)	> 100 µM (inactive)	> 100 µM (inactive)	27.7 µM (inactive)	> 100 µM (inactive)	31.9 µM (inactive)	24.2 µM (inactive)	63.7 µM (inactive)	38.5 µM (inactive)	79.4 µM (inactive)	63.4 µM (inactive)	86.9 µM (inactive)	53.1 µM (inactive)	> 100 µM (inactive)	27.6 µM (inactive)	> 100 µM (inactive)	56.9 µM (inactive)	
CC1(C)C(CC(=O)O)CCCC1CC(=O)O (centres undefined)	> 100 µM (inactive)	> 100 µM (inactive)	> 100 µM (inactive)	> 100 µM (inactive)	> 100 µM (inactive)	> 100 µM (inactive)	> 100 µM (inactive)	> 100 µM (inactive)		> 100 µM (inactive)		> 100 µM (inactive)	> 100 µM (inactive)	> 100 µM (inactive)	> 100 µM (inactive)	> 100 µM (inactive)	> 100 µM (inactive)	
Cc1cn(C2CC(OP(=O)(O)OCC3OC(n4c[n+]([BH2-]C#N)c5c(=O)[nH]c(N)nc54)CC3O)C(CO)O2)c(=O)[nH]c1=O (centres undefined)	> 100 µM (inactive)	> 100 µM (inactive)	> 100 µM (inactive)	> 100 µM (inactive)	> 100 µM (inactive)	> 100 µM (inactive)	> 100 µM (inactive)		> 100 µM (inactive)	> 100 µM (inactive)	> 100 µM (inactive)	> 100 µM (inactive)	> 100 µM (inactive)		> 100 µM (inactive)	> 100 µM (inactive)	> 100 µM (inactive)	> 100 µM (inactive)

— ChEMBL document CHEMBL1201862, “PubChem BioAssay data set” (2004)
